Assay results as given in ChEMBL document CHEMBL1201862, “PubChem BioAssay data set” (2004).
The source made the active and inactive calls.

What was measured:
[1] = molecular target: T1, Alkaline phosphatase, tissue-nonspecific isozyme (Homo sapiens, UniProt P05186)
T1 sequence (P05186 whole entry): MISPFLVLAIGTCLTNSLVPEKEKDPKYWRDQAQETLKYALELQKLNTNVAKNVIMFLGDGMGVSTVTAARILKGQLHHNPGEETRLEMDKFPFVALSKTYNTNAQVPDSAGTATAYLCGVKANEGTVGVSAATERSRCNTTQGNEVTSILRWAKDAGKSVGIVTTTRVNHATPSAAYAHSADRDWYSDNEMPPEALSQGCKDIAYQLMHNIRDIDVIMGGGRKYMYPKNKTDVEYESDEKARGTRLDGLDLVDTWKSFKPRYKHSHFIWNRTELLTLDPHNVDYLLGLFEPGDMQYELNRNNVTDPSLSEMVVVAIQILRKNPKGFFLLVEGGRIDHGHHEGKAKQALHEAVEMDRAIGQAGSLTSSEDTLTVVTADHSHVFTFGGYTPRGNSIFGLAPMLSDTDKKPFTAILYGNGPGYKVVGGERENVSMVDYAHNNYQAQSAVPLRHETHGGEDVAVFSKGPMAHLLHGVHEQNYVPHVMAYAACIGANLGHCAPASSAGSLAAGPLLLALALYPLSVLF

[2] = Trypanosoma cruzi growth suppression in host cells – NIH3T3 host cells, beta-gal luminescence, confirmation (AID 2044); format: functional, cell-based;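 further: intracellular parasites grown in NIH/3T3 mouse fibroblasts as host cells; luminescent beta-galactosidase reporter signal from transgenic T. cruzi replicating inside host cells; inhibitors lower the luminescence signal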
[3] = NIH3T3 cell viability loss – ATP luminescence, mouse fibroblasts, counter-screen, dose response (AID 2010); format: functional, cell-based;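 further: cells exposed to compound for about 90 hours before reading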
Aspartyl aminopeptidase = molecular target: T2, Aspartyl aminopeptidase (Plasmodium falciparum 3D7, UniProt Q8I2J3)
T2 sequence (Q8I2J3 whole entry): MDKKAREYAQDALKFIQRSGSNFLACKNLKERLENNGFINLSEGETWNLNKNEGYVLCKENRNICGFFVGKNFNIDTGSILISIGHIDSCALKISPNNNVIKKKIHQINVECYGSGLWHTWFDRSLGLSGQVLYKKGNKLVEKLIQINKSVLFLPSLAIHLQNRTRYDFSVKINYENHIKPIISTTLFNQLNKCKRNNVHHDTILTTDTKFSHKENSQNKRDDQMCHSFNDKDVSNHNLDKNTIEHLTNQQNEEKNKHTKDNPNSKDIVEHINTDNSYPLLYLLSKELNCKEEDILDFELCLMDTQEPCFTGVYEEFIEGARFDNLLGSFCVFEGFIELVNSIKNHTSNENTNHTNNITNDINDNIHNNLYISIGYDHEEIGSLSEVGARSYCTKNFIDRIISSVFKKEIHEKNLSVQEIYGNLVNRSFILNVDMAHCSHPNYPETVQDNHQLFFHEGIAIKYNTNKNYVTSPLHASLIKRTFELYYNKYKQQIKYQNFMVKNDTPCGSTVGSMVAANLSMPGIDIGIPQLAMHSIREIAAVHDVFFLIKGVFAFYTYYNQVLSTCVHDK

Large T antigen = Large T antigen (Simian virus 40, UniProt P03070); format: functional, Betapolyomavirus macacae;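 further: Confirmatory-stage PubChem screen for compounds that inhibit SV40 T antigen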
Large T antigen, sequence (P03070 whole entry): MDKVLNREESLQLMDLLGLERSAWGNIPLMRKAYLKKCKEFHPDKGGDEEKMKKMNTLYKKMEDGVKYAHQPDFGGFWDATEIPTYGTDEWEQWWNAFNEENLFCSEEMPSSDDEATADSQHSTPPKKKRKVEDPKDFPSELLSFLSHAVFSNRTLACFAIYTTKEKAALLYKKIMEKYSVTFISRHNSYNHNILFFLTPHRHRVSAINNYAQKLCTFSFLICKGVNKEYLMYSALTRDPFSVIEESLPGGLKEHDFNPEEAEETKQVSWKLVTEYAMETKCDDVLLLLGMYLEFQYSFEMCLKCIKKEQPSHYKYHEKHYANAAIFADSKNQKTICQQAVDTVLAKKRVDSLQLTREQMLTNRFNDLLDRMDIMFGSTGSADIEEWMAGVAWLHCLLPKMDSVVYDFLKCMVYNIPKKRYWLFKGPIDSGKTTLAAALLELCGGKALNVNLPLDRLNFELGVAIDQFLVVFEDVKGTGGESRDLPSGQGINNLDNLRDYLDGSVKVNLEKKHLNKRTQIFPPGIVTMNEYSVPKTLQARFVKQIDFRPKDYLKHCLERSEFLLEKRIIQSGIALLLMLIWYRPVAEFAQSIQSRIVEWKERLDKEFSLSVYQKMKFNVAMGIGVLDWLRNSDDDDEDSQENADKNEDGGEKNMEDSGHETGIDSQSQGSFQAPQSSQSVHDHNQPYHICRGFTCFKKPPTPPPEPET

Procathepsin L = Procathepsin L (Homo sapiens, UniProt P07711)
Procathepsin L, sequence (P07711 whole entry): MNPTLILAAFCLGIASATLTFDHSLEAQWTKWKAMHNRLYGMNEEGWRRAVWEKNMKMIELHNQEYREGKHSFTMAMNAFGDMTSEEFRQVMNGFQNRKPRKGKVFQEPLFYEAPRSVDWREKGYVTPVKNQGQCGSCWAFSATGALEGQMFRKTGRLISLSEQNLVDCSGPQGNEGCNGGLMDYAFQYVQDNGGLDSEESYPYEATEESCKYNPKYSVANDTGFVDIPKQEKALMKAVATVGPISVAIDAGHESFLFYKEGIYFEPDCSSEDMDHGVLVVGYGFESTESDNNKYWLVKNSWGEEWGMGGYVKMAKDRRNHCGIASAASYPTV

[4] = molecular target: RNA-editing ligase 1, mitochondrial (Trypanosoma brucei brucei, UniProt P86926); experiment: inhibition of trypanosome RNA editing ligase – biochemical, fluorescence, Trypanosoma brucei, dose response (AID 1117295); format: functional
RNA-editing ligase 1, mitochondrial, sequence (P86926 whole entry): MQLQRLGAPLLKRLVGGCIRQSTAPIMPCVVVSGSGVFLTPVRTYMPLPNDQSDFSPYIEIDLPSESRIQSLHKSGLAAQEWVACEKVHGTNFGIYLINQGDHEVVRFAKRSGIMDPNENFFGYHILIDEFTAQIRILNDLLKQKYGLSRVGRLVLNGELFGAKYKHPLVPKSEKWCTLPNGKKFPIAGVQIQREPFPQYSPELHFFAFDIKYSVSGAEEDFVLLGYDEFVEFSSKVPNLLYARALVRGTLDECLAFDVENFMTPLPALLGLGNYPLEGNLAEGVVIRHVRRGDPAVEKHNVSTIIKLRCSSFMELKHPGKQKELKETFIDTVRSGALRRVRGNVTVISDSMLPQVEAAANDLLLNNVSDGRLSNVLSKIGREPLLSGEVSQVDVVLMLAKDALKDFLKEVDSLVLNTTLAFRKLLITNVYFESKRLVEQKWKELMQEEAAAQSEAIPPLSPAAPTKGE

[5] = molecular target: Lysosomal acid glucosylceramidase (Homo sapiens, UniProt P04062); experiment: Dose response cell-based high throughput screening assay to identify enhancers of beta-glucosidase activity. [Related pubchem assays: 784 ]; format: functional
Lysosomal acid glucosylceramidase, sequence (P04062 whole entry): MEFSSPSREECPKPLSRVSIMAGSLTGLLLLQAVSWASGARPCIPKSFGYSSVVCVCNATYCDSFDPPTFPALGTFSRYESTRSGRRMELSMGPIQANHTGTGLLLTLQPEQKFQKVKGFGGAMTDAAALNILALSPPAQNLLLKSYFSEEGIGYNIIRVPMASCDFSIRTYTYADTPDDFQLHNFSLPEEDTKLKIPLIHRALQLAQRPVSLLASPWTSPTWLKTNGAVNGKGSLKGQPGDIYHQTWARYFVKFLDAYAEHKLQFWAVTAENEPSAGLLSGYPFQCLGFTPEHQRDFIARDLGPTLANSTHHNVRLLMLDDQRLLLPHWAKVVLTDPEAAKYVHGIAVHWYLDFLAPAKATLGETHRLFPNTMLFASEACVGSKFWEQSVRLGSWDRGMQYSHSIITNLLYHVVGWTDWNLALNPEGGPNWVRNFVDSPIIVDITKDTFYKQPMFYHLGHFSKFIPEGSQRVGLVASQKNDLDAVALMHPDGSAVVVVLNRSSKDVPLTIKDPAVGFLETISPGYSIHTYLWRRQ

[6] = molecular target: T3, Eukaryotic translation initiation factor 2-alpha kinase 3 (Homo sapiens, UniProt Q9NZJ5); experiment: Counterscreen assay for PERK inhibitors: Dose response cell-based high throughput screening assay to measure inhibition of PERK at 6 hours. [Related pubchem assays: 1522, 1416 ]; format: functional
T3 sequence (Q9NZJ5 whole entry): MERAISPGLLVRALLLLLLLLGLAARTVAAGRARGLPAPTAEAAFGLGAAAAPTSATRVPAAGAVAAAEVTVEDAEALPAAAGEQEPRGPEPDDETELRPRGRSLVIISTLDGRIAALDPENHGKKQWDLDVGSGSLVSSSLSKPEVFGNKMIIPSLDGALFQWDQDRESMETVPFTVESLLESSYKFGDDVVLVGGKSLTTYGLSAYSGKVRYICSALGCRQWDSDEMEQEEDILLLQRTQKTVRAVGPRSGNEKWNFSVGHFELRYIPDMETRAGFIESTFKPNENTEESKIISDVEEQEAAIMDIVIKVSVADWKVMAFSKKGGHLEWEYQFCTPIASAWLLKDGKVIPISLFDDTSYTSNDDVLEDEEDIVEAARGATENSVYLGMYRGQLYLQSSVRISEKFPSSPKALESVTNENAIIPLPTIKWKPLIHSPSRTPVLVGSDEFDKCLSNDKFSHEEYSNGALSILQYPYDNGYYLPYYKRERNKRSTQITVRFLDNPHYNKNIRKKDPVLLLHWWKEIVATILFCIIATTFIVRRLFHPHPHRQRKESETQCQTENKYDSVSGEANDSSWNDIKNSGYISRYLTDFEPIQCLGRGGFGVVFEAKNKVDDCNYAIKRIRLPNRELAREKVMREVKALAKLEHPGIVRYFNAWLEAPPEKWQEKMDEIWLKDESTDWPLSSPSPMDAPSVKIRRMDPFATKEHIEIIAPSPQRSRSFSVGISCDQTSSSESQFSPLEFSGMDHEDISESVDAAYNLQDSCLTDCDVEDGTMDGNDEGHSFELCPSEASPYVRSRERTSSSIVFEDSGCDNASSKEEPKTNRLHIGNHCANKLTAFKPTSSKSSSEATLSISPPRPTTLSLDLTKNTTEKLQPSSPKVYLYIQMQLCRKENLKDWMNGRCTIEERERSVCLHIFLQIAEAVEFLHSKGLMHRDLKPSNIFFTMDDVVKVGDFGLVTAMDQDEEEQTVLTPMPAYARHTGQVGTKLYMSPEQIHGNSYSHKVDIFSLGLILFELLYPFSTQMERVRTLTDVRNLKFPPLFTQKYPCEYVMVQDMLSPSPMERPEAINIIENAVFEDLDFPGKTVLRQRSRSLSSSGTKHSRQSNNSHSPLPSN

[7] = molecular target: T3, Eukaryotic translation initiation factor 2-alpha kinase 3; experiment: Dose response cell-based high-throughput screening assay to measure PERK inhibition. [Related pubchem assays: 1416 ]; format: functional
[8] = molecular target: G2/mitotic-specific cyclin-B1 (Homo sapiens, UniProt P14635); experiment: HeLa cell cycle G2/M accumulation – FACS, mechanism study for Wee1 degradation inhibitor project, late-stage follow-up, panel member Cyclin B Degradation (AID 2088)
G2/mitotic-specific cyclin-B1, sequence (P14635 whole entry): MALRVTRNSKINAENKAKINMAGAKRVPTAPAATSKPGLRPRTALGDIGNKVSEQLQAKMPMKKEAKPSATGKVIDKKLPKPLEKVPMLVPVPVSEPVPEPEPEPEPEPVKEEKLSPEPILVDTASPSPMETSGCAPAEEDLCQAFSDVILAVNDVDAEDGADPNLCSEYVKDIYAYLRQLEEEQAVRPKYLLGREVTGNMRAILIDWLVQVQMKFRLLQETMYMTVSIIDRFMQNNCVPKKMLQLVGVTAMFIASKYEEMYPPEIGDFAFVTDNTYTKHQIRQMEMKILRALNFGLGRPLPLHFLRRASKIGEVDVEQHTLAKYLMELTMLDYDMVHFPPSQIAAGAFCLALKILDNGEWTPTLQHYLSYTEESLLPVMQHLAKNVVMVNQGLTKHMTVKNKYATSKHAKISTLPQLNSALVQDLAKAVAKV

Wee1-like protein kinase = Wee1-like protein kinase (Homo sapiens, UniProt P30291); experiment: HeLa cell cycle G2/M accumulation – FACS, mechanism study for Wee1 degradation inhibitor project, late-stage follow-up, panel member Wee1 Degradation (AID 2088)
Wee1-like protein kinase, sequence (P30291 whole entry): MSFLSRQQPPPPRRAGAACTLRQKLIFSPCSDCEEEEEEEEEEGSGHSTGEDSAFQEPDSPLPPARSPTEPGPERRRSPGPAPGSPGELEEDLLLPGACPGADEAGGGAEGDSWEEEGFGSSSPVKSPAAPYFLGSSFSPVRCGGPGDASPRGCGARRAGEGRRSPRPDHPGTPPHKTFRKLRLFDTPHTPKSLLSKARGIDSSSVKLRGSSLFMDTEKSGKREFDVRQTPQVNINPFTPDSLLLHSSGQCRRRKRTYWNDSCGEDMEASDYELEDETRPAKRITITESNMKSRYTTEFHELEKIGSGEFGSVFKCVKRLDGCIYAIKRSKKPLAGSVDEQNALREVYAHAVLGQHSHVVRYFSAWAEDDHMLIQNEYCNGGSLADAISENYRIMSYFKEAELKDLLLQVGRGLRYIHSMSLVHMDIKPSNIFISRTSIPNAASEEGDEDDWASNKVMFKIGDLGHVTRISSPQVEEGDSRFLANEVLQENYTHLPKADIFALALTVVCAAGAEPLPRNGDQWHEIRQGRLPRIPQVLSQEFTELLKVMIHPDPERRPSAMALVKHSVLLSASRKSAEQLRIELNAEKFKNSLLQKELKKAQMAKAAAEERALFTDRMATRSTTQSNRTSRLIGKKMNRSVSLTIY

Which EC50 [1] does the source give for CCOC(=O)c1c(NC(=O)N/N=C/c2ccccc2OCC)sc(C(C)=O)c1C here?
Its EC50 is > 100 µM (not active).

And the EC50 [2]?
Its EC50 is 2.88 µM (active).

What about the EC50 [3] of the same compound?
Its EC50 is > 60 µM (not active).

For O=C1NC(=O)C(=Cc2ccc(-c3ccc(F)cc3O)o2)C(=O)N1, which IC50 (Aspartyl aminopeptidase) is on record?
Its IC50 is 4.13 µM (active).

And the IC50 (Large T antigen)?
The IC50 was 39.9 µM (active).

What about the IC50 (Procathepsin L) of the same compound?
The IC50 was > 59.6 µM (not active).

What about the IC50 [4] of the same compound?
The IC50 was 63.8 µM (inactive).

With COc1ccc(CN(Cc2cc3cccc(C)c3nc2O)C(=O)N(C)C)cc1 as the compound, how does the EC50 [5] read?
The EC50 was > 10 µM (not active).

Which results are given for COc1ccc(Nc2nnc(C)c(O)n2)c(OC)c1?
EC50 [6]: > 55.7 µM (not active); EC50 [7]: > 55.7 µM (not active)

For CCOC(=O)c1cccc(NC(=O)CCCOc2cc(=O)n(C)c3ccccc23)c1, which EC50 [8] is on record?
Its EC50 is > 49.7 µM (inactive).

And the EC50 (Wee1-like protein kinase)?
The EC50 was > 49.7 µM (inactive).
